Measured values reported in US11739101B2, “Bifunctional degraders of hematopoietic progenitor kinase and therapeutic uses thereof” (Nurix Therapeutics, Inc., priority 2020, dated 2023).

What follows are compounds tested against T1, HPK1 (Homo sapiens, UniProt Q92918) (assay: HPK1 Cellular HiBiT Degradation Assay). Conditions: HiBiT-tagged HPK1 Jurkat cells, 24 hours, 10 uM to 0.1 nM; Dmax = 100 minus lowest % HPK1 remaining vs DMSO vehicle.
T1 construct: A HiBiT tag was introduced by CRISPR on the N terminus of HPK1 in Jurkat cells; host or cells: Jurkat (ATCC TIB-152), monoclonal CRISPR HiBiT knock-in line
Type: cell-based
Protocol: HiBiT HPK1 Jurkat cell lines were used to evaluate the total protein levels of HPK1 in a robust human cellular high throughput format. The level of HPK1 remaining following treatment with HPK1 CTMs is reported as Dmax (maximum degradation) achieved at 24 hours when compared to vehicle treated controls. […] These decreases were not a result of cytotoxicity measured by a parallel viability assessment (CTG). See also Table 1.
A HiBiT tag was introduced by CRISPR on the N terminus of HPK1 in Jurkat cells (ATCC® TIB-152) to allow quantitation of HPK1 protein levels in a monoclonal human cell line. Cells were plated at 1×10^6 cells/mL, 30 uL/well (3×10^4 cells/well) in complete RPMI 1640 (10% heat inactivated FBS, 1% L-glutamine) in 384-well assay plates (Corning, cat. no. 3570). HPK1 chimeric targeting molecules (CTMs) were added in an 11-point dilution series (3.16-fold) with a final assay concentration range of 10 uM to 0.1 nM. The parental Jurkat cell line, with no HiBiT insertion, was included in the assay as a background control. Cells treated with a DMSO vehicle control were used to determine the maximum signal defining 100% HPK1 in the cell. Cells were incubated for 24 hours at 37° C./5% CO2. Following incubation, 30 uL of complete Nano-Glo HiBiT Lytic Detection Reagent (Promega cat. no. N3040) was added. Cells were incubated for 10 minutes at room temperature and luminescence was read on an EnVision plate reader (Perkin Elmer, 0.1 sec per well). Parallel plates were assessed for viability using Cell Titer Glo (Promega) and read on an EnVision plate reader to ensure results were not the effect of cytotoxicity. Percent HPK1 remaining per sample was calculated as follows: […]
% HPK1 remaining values were plotted as a function of compound concentration and curves were fit using the Prism (GraphPad) equation “log(inhibitor) vs response−Variable slope (four parameters)”. Dmax values were calculated by identifying the lowest % remaining and subtracting from 100. Dmax values are provided in Table 1, wherein A>65%, 45%≤B≤65% and C<45%.

T1 sequence (Q92918 whole entry): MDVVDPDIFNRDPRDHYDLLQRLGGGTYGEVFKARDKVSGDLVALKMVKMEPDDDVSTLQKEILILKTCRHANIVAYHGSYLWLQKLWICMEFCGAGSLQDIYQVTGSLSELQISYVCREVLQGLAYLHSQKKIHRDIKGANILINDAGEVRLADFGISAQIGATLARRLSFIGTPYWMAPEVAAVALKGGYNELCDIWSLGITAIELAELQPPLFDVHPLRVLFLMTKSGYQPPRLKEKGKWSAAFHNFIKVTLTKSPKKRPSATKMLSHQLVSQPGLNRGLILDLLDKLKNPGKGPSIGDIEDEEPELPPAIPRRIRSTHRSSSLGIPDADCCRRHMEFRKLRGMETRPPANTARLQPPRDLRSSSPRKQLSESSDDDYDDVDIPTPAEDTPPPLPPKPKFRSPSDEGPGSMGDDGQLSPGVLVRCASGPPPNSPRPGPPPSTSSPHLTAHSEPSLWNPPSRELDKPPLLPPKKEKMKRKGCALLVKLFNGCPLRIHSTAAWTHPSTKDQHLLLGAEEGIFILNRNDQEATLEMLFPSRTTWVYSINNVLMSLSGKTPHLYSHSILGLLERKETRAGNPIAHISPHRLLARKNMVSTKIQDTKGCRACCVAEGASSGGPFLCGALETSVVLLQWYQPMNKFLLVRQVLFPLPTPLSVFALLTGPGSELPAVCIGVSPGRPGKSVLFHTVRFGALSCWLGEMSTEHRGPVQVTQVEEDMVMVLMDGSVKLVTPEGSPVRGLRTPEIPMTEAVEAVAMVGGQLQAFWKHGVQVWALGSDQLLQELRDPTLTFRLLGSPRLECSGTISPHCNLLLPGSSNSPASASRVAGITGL

Row | Structure (SMILES) | Dmax
1 | Cc1cc(F)c(Nc2nc(-c3ccc4c(c3)N([C@H]3C[C@@H](N5CCCCC5)C3)C(=O)C43CCN(C(=O)CN4CCC5(CC4)CN(c4ccc6c(c4)C(=O)N(C4CCC(=O)NC4=O)C6=O)C5)CC3)cc3ncn(C(C)C)c23)cc1C(=O)NC(C)C (some centres unmarked) [Example 22, 5-[(6-{1′-[2-(2-{2-[2,6-dioxopiperidin-3-yl]-1,3-dioxo-2,3-dihydro-1H-isoindol-5-yl}-2,7-diazaspiro[3.5]nonan-7-yl)acetyl]-2-oxo-1-[(1s,3s)-3-(piperidin-1-yl)cyclobutyl]-1,2-dihydrospiro[indole-3,4′-piperidin]-6-yl}-3-(propan-2-yl)-3H-imidazo[4,5-c]pyridine-4-yl)amino]-4-fluoro-2-methyl-N-(propan-2-yl)benzamide] | < 45%
2 | Cc1cc(F)c(Nc2nc(-c3ccc4c(c3)N([C@H]3C[C@@H](N5CCCCC5)C3)C(=O)C43CCN(C(=O)[C@H]4CCN(C(=O)[C@H]5CC[C@H](Nc6cccc7c6C(=O)N(C6CCC(=O)NC6=O)C7=O)CC5)C4)CC3)cc3ncn(C(C)C)c23)cc1C(=O)NC(C)C (stereo partly drawn) [Example 87, 5-((6-(1′-((3S)-1-((1R,4S)-4-((2-(2,6-dioxopiperidin-3-yl)-1,3-dioxoisoindolin-4-yl)amino)cyclohexane-1-carbonyl)pyrrolidine-3-carbonyl)-2-oxo-1-((1s,3R)-3-(piperidin-1-yl)cyclobutyl)spiro[indoline-3,4′-piperidin]-6-yl)-3-isopropyl-3H-imidazo[4,5-c]pyridin-4-yl)amino)-4-fluoro-N-isopropyl-2-methylbenzamide] | < 45%
3 | CC(=O)N1CCC2(CC1)C(=O)N([C@H]1C[C@@H](N3CCC[C@@H](C(=O)NCCCCCCCCCNc4ccc5c(c4)C(=O)N(C4CCC(=O)NC4=O)C5=O)C3)C1)c1cc(-c3cc4ncn(C(C)C)c4c(Nc4cc(C(=O)NC(C)C)c(C)cc4F)n3)ccc12 (stereo partly drawn) [Example 15, (3R)-1-((1s,3s)-3-(1′-acetyl-6-(4-((2-fluoro-5-(isopropylcarbamoyl)-4-methylphenyl)amino)-3-isopropyl-3H-imidazo[4,5-c]pyridin-6-yl)-2-oxospiro[indoline-3,4′-piperidin]-1-yl)cyclobutyl)-N-(9-((2-(2,6-dioxopiperidin-3-yl)-1,3-dioxoisoindolin-5-yl)amino)nonyl)piperidine-3-carboxamide] | < 45%
4 | Cc1cc(F)c(Nc2nc(-c3ccc4c(c3)N([C@H]3C[C@@H](N5CCCCC5)C3)C(=O)C43CCN(C(=O)c4ccc(CC5CCN(c6cccc7c6C(=O)N(C6CCC(=O)NC6=O)C7=O)CC5)cc4)CC3)cc3ncn(C(C)C)c23)cc1C(=O)NC(C)C (some centres unmarked) [Example 59, 5-[(6-{1′-[4-({1-[2-(2,6-dioxopiperidin-3-yl)-1,3-dioxo-2,3-dihydro-1H-isoindol-4-yl]piperidin-4-yl}Methyl)benzoyl]-2-oxo-1-[(1s,3s)-3-(piperidin-1-yl)cyclobutyl]-1,2-dihydrospiro[indole-3,4′-piperidin]-6-yl}-3-(propan-2-yl)-3H-imidazo[4,5-c]pyridin-4-yl)amino]-4-fluoro-2-methyl-N-(propan-2-yl)benzamide] | 45 to 65%
5 | Cc1cc(F)c(Nc2nc(-c3ccc4c(c3)N([C@H]3C[C@@H](N5CCCCC5)C3)C(=O)C43CCN(C(=O)C4CN(C5CCN(c6ccc7c(c6)C(=O)N(C6CCC(=O)NC6=O)C7=O)CC5)C4)CC3)cc3ncn(C(C)C)c23)cc1C(=O)NC(C)C (some centres unmarked) [Example 24, 5-[(6-{1′-[1-(1-{2-[2,6-dioxopiperidin-3-yl]-1,3-dioxo-2,3-dihydro-1H-isoindol-5-yl}piperidin-4-yl)azetidine-3-carbonyl]-2-oxo-1-[(1s,3s)-3-(piperidin-1-yl)cyclobutyl]-1,2-dihydrospiro[indole-3,4′-piperidin]-6-yl}-3-(propan-2-yl)-3H-imidazo[4,5-c]pyridin-4-yl)amino]-4-fluoro-2-methyl-N-(propan-2-yl)benzamide] | < 45%
